What all share (experiment): Cell proliferation assay (Alamar Blue)
Common to all, as to assay type: cell-based
Background: Resazurin is reduced to fluorescent resorufin, in cell work by metabolically active cells.

One test has as its system JHH6. The following applies: 144 h; JHH6 liver cancer cell line; 6 days. On the procedure: (§1) 1. Instruments and Materials • Thermo 311 CO2 incubator; Haier biosafety cabinet; Molecular Devices microplate reader; Xiangyi brand L530 desktop low speed centrifuge; Olympus IX51 inverted fluorescence microscope, DMEM, RPMI 1640, MEM, DMEM/F12 1:1 medium, Fetal bovine serum, 0.25% trypsin solution, phosphate buffer (Thermo Fisher Shanghai Co., Ltd.); sigma dimethyl sulfoxide (DMSO), resazurin; 54 commercial tumor cell lines (including 26 liver cancer cell lines). Experimental drugs: compounds 1-12 and active drug Linifanib; chemotherapeutic drug Doxorubicin (HY-15142; Shanghai Qianyuan Biomedical Technology Co., Ltd.).
(§2) 2. Experimental Methods • 2.1 Cultivation of different cell lines • 54 cell lines were cultured in a culture medium containing fetal bovine serum and placed in a 5% CO 2 incubator at 37° C. for incubation. The cells were all grown in an adherent state, and the growth was observed under an inverted microscope, and subculture was performed when the cell confluence rate reached 80%-90%. The proportion and quantity of passage were determined by experimental needs. The ratio of subculture of this cell line was generally 1:2^˜1:3. • 2.2 inhibition effect on the proliferation of different tumor cell lines • Cell test: 54 cell lines in logarithmic growth phase were inoculated in 96-well culture plates at 500^˜1×10^4/well (the optimal seeding density of each cell line was determined in pre-experiment), After incubating at 37° C. for 4 h in a 5% CO2 humidification incubator, added 10 μL of compounds 1-12 or Linifanib to each well, and tested 9 drug concentration gradients for each compound (diluted from the highest concentration of the test by 3.16 times). The solubility of each compound was different at a starting concentration of 30 or 100 μM, respectively. The QC reference compound Doxorubicin was added simultaneously to each cell line test, and the final drug concentrations were 10, 3.16, 1, 0.31, 0.1, 0.03, 0.01, 0.003, and 0.001 μM, respectively. In addition, a positive control group (100% inhibition) and a negative control group (0% inhibition) were set at the same time. The drug group was repeated for 2 wells per concentration, and the positive control group and the negative control group were repeated for 6 wells. After the culture was continued for 6 days in the incubator, AlamarBlue test operation was followed; • AlamarBlue test procedure: Incubated with 10 μL of AlamarBlue reagent per well for 1-4 h, shook for 1-2 min, MD microplate reader EX: 560 nm, EM: 590 nm wavelength to measure fluorescence, recorded the results, calculated the cell inhibition rate of the compound of the invention. Cell inhibition rate (%)=(A0% inhibition−A administration)/(A0% inhibition−A100% inhibition)×100%, and then using the method of nonlinear regression using Graph Pad Prism 5.0 or MATILAB software (usually using four parameters) to graph and obtain a drug dose response curve to obtain an IC50 value of the compound of the present invention acting on a cancer cell line.

For the next test, the system named is NCl-H2170. The following applies: 144 h; NCl-H2170 tumor cell line; 6 days. How it is done: as §1, §2
Another test has as its system JHH5. The following applies: 144 h; JHH5 liver cancer cell line; 6 days. On the procedure:
as §1, §2

In another test the test system is SNU886. The following applies: SNU-886, 144 h; SNU886 liver cancer cell line; 6 days. How it is done: as §1, §2
A further test concerns NCl-H716. The following applies: 144 h; NCl-H716 tumor cell line; 6 days. How it is done: as §1, §2
Another test relates to MG63. The following applies: Homo sapiens, MG-63, 144 h; MG63 tumor cell line; 6 days. On the procedure: as §1, §2
In another test the test system is MFM-223. Conditions: Homo sapiens, 144 h; MFM-223 tumor cell line; 6 days. On the procedure: as §1, §2
In a further test the test system is MDA-MB-435S. Conditions: Homo sapiens, 144 h; MDA-MB-435S tumor cell line; 6 days. How it is done:
as §1, §2

The subject of the next test is HLF. The following applies: 144 h; HLF liver cancer cell line; 6 days. How it is done:
as §1, §2

A further test relates to NCl-H661. Conditions: 144 h; NCl-H661 tumor cell line; 6 days. How it is done: as §1, §2
For a further test, the system named is Li-7. Conditions: 144 h; Li-7 liver cancer cell line; 6 days. On the procedure:
as §1, §2

The next test deals with TE-6. The following applies: Homo sapiens, 144 h; TE-6 tumor cell line; 6 days. On the procedure:
as §1, §2

The subject of a further test is SNU387. Conditions: Homo sapiens, SNU-387, 144 h; SNU387 liver cancer cell line; 6 days. How it is done: as §1, §2
In the next test the test system is DU145. The following applies: Homo sapiens, DU-145, 144 h; DU145 tumor cell line; 6 days. How it is done:
as §1, §2

In another test the test system is HUH7. The following applies: Homo sapiens, Huh-7, 144 h; HUH7 liver cancer cell line; 6 days. On the procedure:
as §1, §2

In a further test the test system is HLE. The following applies: Homo sapiens, 144 h; HLE liver cancer cell line; 6 days. How it is done: as §1, §2
In another test the test system is K562. The following applies: Homo sapiens, 144 h; K562 tumor cell line; 6 days. On the procedure:
as §1, §2

The subject of another test is SW620. Conditions: Homo sapiens, SW-620, 144 h; SW620 tumor cell line; 6 days. On the procedure:
as §1, §2

For a further test, the system named is DLD1. Conditions: Homo sapiens, DLD-1, 144 h; DLD1 tumor cell line; 6 days. On the procedure: as §1, §2
The next test deals with MDA-MB-231. Conditions: Homo sapiens, 144 h; MDA-MB-231 tumor cell line; 6 days. On the procedure: as §1, §2
For a further test, the system named is HT55. The following applies: Homo sapiens, 144 h; HT55 tumor cell line; 6 days. On the procedure: as §1, §2
For the next test, the system named is JHH4. The following applies: JHH-4, 144 h; JHH4 liver cancer cell line; 6 days. On the procedure: as §1, §2
In the next test the test system is NCl-H1648. Conditions: 144 h; NCl-H1648 tumor cell line; 6 days. On the procedure: as §1, §2
A further test has as its system HuTu80. The following applies: Homo sapiens, 144 h; HuTu80 tumor cell line; 6 days. On the procedure:
as §1, §2

As to `Cc1ccc(F)c(NC(=O)Nc2ccc(-c3cccc4c3c(N)nn4C(=O)CCCCCCCCCCCNC(=O)C[C@H](N)C(=O)N[C@@H](CCC(=O)N[C@@H](CCC(=O)N[C@@H](CCC(=O)N[C@@H](CCC(=O)N[C@@H](CCC(=O)N[C@@H](CCC(=O)N[C@@H](CCC(=O)N[C@@H](CCC(=O)N[C@@H](CCC(=O)O)C(=O)O)C(=O)O)C(=O)O)C(=O)O)C(=O)O)C(=O)O)C(=O)O)C(=O)O)C(=O)O)cc2)c1` [Compound 9], the IC50 (in general, the concentration that inhibits the measured activity by half) in the test with JHH6 was 65.3 µM; with NCl-H2170 it was 84 µM; in the test on JHH5, above 100 µM; in the test with SNU886 it was above 100 µM; in the test on NCl-H716, 43.1 µM; with MG63, above 100 µM. The half-inhibitory concentration (IC50) in the test on MFM-223 was 38.3 µM; in the test on MDA-MB-435S, above 100 µM; in the test with HLF, 63.4 µM; with NCl-H661, above 100 µM; with Li-7, 49.3 µM; in the test with TE-6, above 100 µM. For the same molecule, the IC50 in the test with SNU387 is above 100 µM; in the test with DU145, 34.5 µM; in the test with HUH7 it was 30.3 µM; in the test with HLE it was 53.3 µM; in the test with K562, above 100 µM; in the test with SW620, 66.7 µM. The half-maximal inhibitory concentration (IC50) with DLD1 is above 100 µM; with MDA-MB-231 it was 81.1 µM; in the test with HT55, above 100 µM; in the test with JHH4, above 100 µM; in the test with NCl-H1648 it was above 100 µM; with HuTu80, 73.5 µM.

Regarding `Cc1ccc(F)c(NC(=O)Nc2ccc(-c3cccc4c3c(N)nn4C(=O)CCCCCCCCCCCNC(=O)C[C@H](N)C(=O)O)cc2)c1` [Compound 12], the IC50 in the test on JHH6, in the test on NCl-H2170, in the test on JHH5, in the test with SNU886, in the test on NCl-H716 and with MG63 was above 30 µM throughout. Further, the IC50 with MFM-223, in the test with MDA-MB-435S, in the test on HLF, with NCl-H661, in the test with Li-7 and in the test on TE-6 was above 30 µM each time. Also, the half-inhibitory concentration (IC50) in the test with SNU387 was 30.3 µM; with DU145, above 30 µM; in the test with HUH7, above 30 µM; with HLE, above 30 µM; with K562, above 30 µM; in the test with SW620 it was above 30 µM. The IC50 with DLD1, in the test on MDA-MB-231, in the test on HT55, in the test with JHH4, in the test with NCl-H1648 and in the test with HuTu80 was above 30 µM throughout.

As to `Cc1ccc(F)c(NC(=O)Nc2ccc(-c3cccc4c3c(N)nn4C(=O)C[C@H](N)C(=O)O)cc2)c1` [Compound 10], the IC50 in the test with JHH6 is 2.46 µM; in the test on NCl-H2170, 1.24 µM; in the test with JHH5 it was 12.4 µM; in the test on SNU886 it was 1.45 µM; in the test with NCl-H716, 1.93 µM; in the test with MG63, 4.37 µM. Besides, the half-maximal inhibitory concentration (IC50) worked out at 5.63 µM in the test with MFM-223; 13.3 µM with MDA-MB-435S; 3.87 µM with HLF; 5.47 µM with NCl-H661; 4.38 µM with Li-7; 4.11 µM with TE-6. Also, the half-maximal inhibitory concentration (IC50) with SNU387 turned out to be 10.5 µM; in the test on DU145, 1.34 µM; in the test on HUH7 it was 2.89 µM; in the test on HLE, 1.26 µM; with K562 it was 3.04 µM; in the test on SW620, 3.46 µM. Also, the 50% inhibitory concentration (IC50) in the test on DLD1 was 7.53 µM; in the test on MDA-MB-231 it was 3.17 µM; in the test with HT55 it was 14.9 µM; in the test on JHH4 it was 2.31 µM; in the test with NCl-H1648, 6.06 µM; in the test with HuTu80 it was 2.63 µM.

In the case of `Cc1ccc(F)c(NC(=O)Nc2ccc(-c3cccc4c3c(N)nn4C(=O)CCCCCCCCCCCNC(=O)C[C@H](N)C(=O)N[C@@H](CCC(=O)N[C@@H](CCC(=O)N[C@@H](CCC(=O)N[C@@H](CCC(=O)O)C(=O)O)C(=O)O)C(=O)O)C(=O)O)cc2)c1` [Compound 8], the IC50 was determined as 41.7 µM in the test with JHH6; 51.9 µM in the test with NCl-H2170; 48.6 µM in the test on JHH5; 61 µM in the test with SNU886; 26.9 µM in the test with NCl-H716; 37.2 µM with MG63. In addition, the 50% inhibitory concentration (IC50) was 24 µM with MFM-223; 38.5 µM in the test on MDA-MB-435S; 44.6 µM with HLF; above 100 µM in the test with NCl-H661; 39.6 µM with Li-7; above 100 µM in the test on TE-6. Also, the half-maximal inhibitory concentration (IC50) with SNU387 is 90.2 µM; in the test with DU145, 20.7 µM; in the test on HUH7 it was 23.6 µM; in the test with HLE, 36.8 µM; in the test with K562, above 100 µM; in the test with SW620 it was 44.5 µM. The half-maximal inhibitory concentration (IC50) was 51.1 µM in the test with DLD1; 53.5 µM with MDA-MB-231; above 100 µM with HT55; 95.9 µM in the test on JHH4; above 100 µM in the test on NCl-H1648; 43.8 µM in the test with HuTu80.

As for `Cc1ccc(F)c(NC(=O)Nc2ccc(-c3cccc4[nH]nc(N)c34)cc2)c1` [Linifanib, reference compound], the half-inhibitory concentration (IC50) turned out to be 4.11 µM in the test on JHH6; 4 µM in the test with NCl-H2170; 10 µM with JHH5; 4.48 µM in the test with SNU886; 4.1 µM in the test on NCl-H716; 1.78 µM in the test with MG63. For the same molecule, the half-inhibitory concentration (IC50) is 1.72 µM with MFM-223; 10.7 µM with MDA-MB-435S; 3.65 µM with HLF; 13.3 µM with NCl-H661; 5.43 µM in the test on Li-7; 4.09 µM with TE-6. The IC50 with SNU387 is 12.3 µM; with DU145, 5.01 µM; in the test on HUH7, 1.67 µM; in the test with HLE, 3.93 µM; in the test on K562, 10.8 µM; with SW620, 2.78 µM. The IC50 in the test with DLD1 was 11.6 µM; in the test on MDA-MB-231, 4.03 µM; with HT55 it was 22.3 µM; in the test on JHH4, 10.6 µM; in the test on NCl-H1648 it was 7.17 µM; with HuTu80, 1.85 µM.

These data come from patent US11351151B2, “Compound having anticancer activity and preparation method and application” (3D Medicines (Beijing) Co., Ltd., priority 2016, dated 2022).
